# According to US11000033B2, “Ketone or oxime compound, and herbicide” (NISSAN CHEMICAL CORPORATION, priority 2014, dated 2021):
# How the values were obtained:
# Format in all cases: in vivo
# Scirpus juncoides = experiment: Test Example 1: herbicidal activity, application before weed generation in submerged conditions (symbol B); conditions: application herbicide amount 320 g/ha
# Outline: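 Mixed weed seeds sown in alluvial soil under 4 cm of water, with rice seedlings at the 2.5-leaf stage added. Same-day treatment: emulsion diluted to a set herbicide amount onto the water. Three weeks at 25–30 °C, then graded on a six-step scale.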
# Leptochloa chinensis = experiment: Test Example 3: herbicidal effect by foliage application, Wagner pot (symbol D); conditions: application herbicide amount 320 g/ha
# Outline: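 In a shallow-flooded alluvial soil system held at 25–30 °C, plants including rice grew for 14 days and were then sprayed over the foliage with emulsion diluted to a fixed herbicide amount. Visual rating followed at 3 weeks.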
# Setaria viridis = experiment: Test Example 4: herbicidal effect by soil treatment (symbol G); conditions: application herbicide amount 320 g/ha
# Outline: (§1)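 Seeds were sown in sterilized diluvial soil, covered with about 1.5 cm of soil, and the soil surface was sprayed with a water-diluted emulsion of the compound at a predetermined rate. Plants grew in a greenhouse at 25° C. to 30° C.; effects were scored visually 3 weeks after application.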
# Avena fatua [1] = experiment: Test Example 4: herbicidal effect by soil treatment (symbol I); conditions: application herbicide amount 320 g/ha
# Outline: as §1
# Galium spurium [2] = experiment: Test Example 4: herbicidal effect by soil treatment (symbol Q); conditions: application herbicide amount 320 g/ha
# Outline: as §1
# soybean = experiment: Test Example 4: effect on crop by soil treatment (symbol d); conditions: application herbicide amount 320 g/ha
# Outline: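 Sterilized diluvial soil, spot sowing, ~1.5 cm soil cover; greenhouse 25–30° C.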
# Digitaria ciliaris = experiment: Test Example 5: herbicidal effect by foliage application, plastic box (symbol F); conditions: 320 g/ha, 3 weeks after application
# Outline: (§2)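 Herbicide, formulated as an emulsion and diluted in water, is sprayed onto the aerial parts of 14-day seedlings. These were grown at 25° C. to 30° C. in sterilized diluvial soil; effects are graded after 3 weeks.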
# [3] = tested on: Echinochloa crus-galli var. crus-galli; experiment: Test Example 5: herbicidal effect by foliage application, plastic box (symbol H); conditions: 320 g/ha, 3 weeks after application
# Outline: as §2
# Avena fatua [4] = experiment: Test Example 5: herbicidal effect by foliage application, plastic box (symbol I); conditions: 320 g/ha, 3 weeks after application
# Outline: as §2
# Apera spica-venti = experiment: Test Example 5: herbicidal effect by foliage application, plastic box (symbol L); conditions: 320 g/ha, 3 weeks after application
# Outline: as §2
# Abutilon theophrasti = experiment: Test Example 5: herbicidal effect by foliage application, plastic box (symbol M); conditions: 320 g/ha, 3 weeks after application
# Outline: as §2
# Chenopodium album = experiment: Test Example 5: herbicidal effect by foliage application, plastic box (symbol O); conditions: 320 g/ha, 3 weeks after application
# Outline: as §2
# Stellaria media = experiment: Test Example 5: herbicidal effect by foliage application, plastic box (symbol P); conditions: 320 g/ha, 3 weeks after application
# Outline: as §2
# Galium spurium [5] = experiment: Test Example 5: herbicidal effect by foliage application, plastic box (symbol Q); conditions: 320 g/ha, 3 weeks after application
# Outline: as §2
# Veronica persica = experiment: Test Example 5: herbicidal effect by foliage application, plastic box (symbol R); conditions: 320 g/ha, 3 weeks after application
# Outline: as §2
# beet = experiment: Test Example 5: effect on crop by foliage application, plastic box (symbol f); conditions: 320 g/ha, 3 weeks after application
# Outline: (§3)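 Foliage-application test plants come from spot sowing in sterilized diluvial soil under a soil layer of about 1.5 cm, grown at 25° C. to 30° C. in a greenhouse.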
# rapeseed = experiment: Test Example 5: effect on crop by foliage application, plastic box (symbol g); conditions: 320 g/ha, 3 weeks after application
# Outline: as §3
# Amaranthus retroflexus = experiment: Test Example 4: herbicidal effect by soil treatment (symbol N); conditions: application herbicide amount 320 g/ha
# Outline: as §1
smiles,measurement,setting,value
CON=C(C)CC1CC(O)=C(c2c(F)cc(-c3ccccc3)cc2OC)C1=O (centres unmarked) [6-107],"Herbicidal effect grade, B: Scirpus juncoides",Scirpus juncoides,5 (Herbicidal ratio of 90% or more (almost completely withered))
same,"herbicidal effect on D (Leptochloa chinensis), grade 0-5",Leptochloa chinensis,5 (Herbicidal ratio of 90% or more (almost completely withered))
same,"Herbicidal effect grade, G: Setaria viridis",Setaria viridis,5 (Herbicidal ratio of 90% or more (almost completely withered))
same,"Herbicidal effect grade, I: Avena fatua",Avena fatua [1],3 (Herbicidal ratio of 40% or higher and lower than 70%)
same,"Herbicidal effect grade, Q: Galium spurium",Galium spurium [2],2 (Herbicidal ratio of 20% or higher and lower than 40%)
same,"Effect on crop grade, d: soybean",soybean,0 (Herbicidal ratio of 5% or lower (almost no effect))
same,"F: Digitaria ciliaris, herbicidal effect (criteria of Test Example 1)",Digitaria ciliaris,5 (Herbicidal ratio of 90% or more (almost completely withered))
same,"H: Echinochloa crus-galli var. crus-galli, herbicidal effect (criteria of Test Example 1)",[3],5 (Herbicidal ratio of 90% or more (almost completely withered))
same,"I: Avena fatua, herbicidal effect (criteria of Test Example 1)",Avena fatua [4],5 (Herbicidal ratio of 90% or more (almost completely withered))
same,"L: Apera spica-venti, herbicidal effect (criteria of Test Example 1)",Apera spica-venti,5 (Herbicidal ratio of 90% or more (almost completely withered))
same,"M: Abutilon theophrasti, herbicidal effect (criteria of Test Example 1)",Abutilon theophrasti,3 (Herbicidal ratio of 40% or higher and lower than 70%)
same,"O: Chenopodium album, herbicidal effect (criteria of Test Example 1)",Chenopodium album,4 (Herbicidal ratio of 70% or higher and lower than 90%)
same,"P: Stellaria media, herbicidal effect (criteria of Test Example 1)",Stellaria media,2 (Herbicidal ratio of 20% or higher and lower than 40%)
same,"Q: Galium spurium, herbicidal effect (criteria of Test Example 1)",Galium spurium [5],5 (Herbicidal ratio of 90% or more (almost completely withered))
same,"R: Veronica persica, herbicidal effect (criteria of Test Example 1)",Veronica persica,4 (Herbicidal ratio of 70% or higher and lower than 90%)
same,"f: beet, effect on crop (criteria of Test Example 1)",beet,2 (Herbicidal ratio of 20% or higher and lower than 40%)
same,"g: rapeseed, effect on crop (criteria of Test Example 1)",rapeseed,4 (Herbicidal ratio of 70% or higher and lower than 90%)
CON=C(C)CC1CC(O)=C(c2c(C)cc(-c3ccsc3)cc2C)C1=O (centres unmarked) [6-106],"Herbicidal effect grade, B: Scirpus juncoides",Scirpus juncoides,5 (Herbicidal ratio of 90% or more (almost completely withered))
same,"herbicidal effect on D (Leptochloa chinensis), grade 0-5",Leptochloa chinensis,5 (Herbicidal ratio of 90% or more (almost completely withered))
same,"Herbicidal effect grade, I: Avena fatua",Avena fatua [1],3 (Herbicidal ratio of 40% or higher and lower than 70%)
same,"Herbicidal effect grade, N: Amaranthus retroflexus",Amaranthus retroflexus,0 (Herbicidal ratio of 5% or lower (almost no effect))
same,"Herbicidal effect grade, Q: Galium spurium",Galium spurium [2],0 (Herbicidal ratio of 5% or lower (almost no effect))
same,"Effect on crop grade, d: soybean",soybean,0 (Herbicidal ratio of 5% or lower (almost no effect))
same,"F: Digitaria ciliaris, herbicidal effect (criteria of Test Example 1)",Digitaria ciliaris,5 (Herbicidal ratio of 90% or more (almost completely withered))
same,"H: Echinochloa crus-galli var. crus-galli, herbicidal effect (criteria of Test Example 1)",[3],5 (Herbicidal ratio of 90% or more (almost completely withered))
same,"I: Avena fatua, herbicidal effect (criteria of Test Example 1)",Avena fatua [4],3 (Herbicidal ratio of 40% or higher and lower than 70%)
same,"L: Apera spica-venti, herbicidal effect (criteria of Test Example 1)",Apera spica-venti,5 (Herbicidal ratio of 90% or more (almost completely withered))
same,"M: Abutilon theophrasti, herbicidal effect (criteria of Test Example 1)",Abutilon theophrasti,0 (Herbicidal ratio of 5% or lower (almost no effect))
same,"O: Chenopodium album, herbicidal effect (criteria of Test Example 1)",Chenopodium album,0 (Herbicidal ratio of 5% or lower (almost no effect))
same,"P: Stellaria media, herbicidal effect (criteria of Test Example 1)",Stellaria media,3 (Herbicidal ratio of 40% or higher and lower than 70%)
same,"Q: Galium spurium, herbicidal effect (criteria of Test Example 1)",Galium spurium [5],3 (Herbicidal ratio of 40% or higher and lower than 70%)
same,"R: Veronica persica, herbicidal effect (criteria of Test Example 1)",Veronica persica,3 (Herbicidal ratio of 40% or higher and lower than 70%)
same,"f: beet, effect on crop (criteria of Test Example 1)",beet,0 (Herbicidal ratio of 5% or lower (almost no effect))
same,"g: rapeseed, effect on crop (criteria of Test Example 1)",rapeseed,5 (Herbicidal ratio of 90% or more (almost completely withered))
CON=C(C)CC1CC(OC(=O)N2CCOCC2)=C(c2c(C)cc(C)cc2OC)C1=O (centres unmarked) [6-094],"Herbicidal effect grade, B: Scirpus juncoides",Scirpus juncoides,5 (Herbicidal ratio of 90% or more (almost completely withered))
same,"herbicidal effect on D (Leptochloa chinensis), grade 0-5",Leptochloa chinensis,5 (Herbicidal ratio of 90% or more (almost completely withered))
same,"Herbicidal effect grade, G: Setaria viridis",Setaria viridis,5 (Herbicidal ratio of 90% or more (almost completely withered))
same,"Herbicidal effect grade, I: Avena fatua",Avena fatua [1],5 (Herbicidal ratio of 90% or more (almost completely withered))
same,"Herbicidal effect grade, N: Amaranthus retroflexus",Amaranthus retroflexus,0 (Herbicidal ratio of 5% or lower (almost no effect))
same,"Herbicidal effect grade, Q: Galium spurium",Galium spurium [2],0 (Herbicidal ratio of 5% or lower (almost no effect))
same,"Effect on crop grade, d: soybean",soybean,0 (Herbicidal ratio of 5% or lower (almost no effect))
same,"F: Digitaria ciliaris, herbicidal effect (criteria of Test Example 1)",Digitaria ciliaris,5 (Herbicidal ratio of 90% or more (almost completely withered))
same,"H: Echinochloa crus-galli var. crus-galli, herbicidal effect (criteria of Test Example 1)",[3],5 (Herbicidal ratio of 90% or more (almost completely withered))
same,"I: Avena fatua, herbicidal effect (criteria of Test Example 1)",Avena fatua [4],5 (Herbicidal ratio of 90% or more (almost completely withered))
same,"L: Apera spica-venti, herbicidal effect (criteria of Test Example 1)",Apera spica-venti,5 (Herbicidal ratio of 90% or more (almost completely withered))
same,"M: Abutilon theophrasti, herbicidal effect (criteria of Test Example 1)",Abutilon theophrasti,4 (Herbicidal ratio of 70% or higher and lower than 90%)
same,"O: Chenopodium album, herbicidal effect (criteria of Test Example 1)",Chenopodium album,5 (Herbicidal ratio of 90% or more (almost completely withered))
same,"P: Stellaria media, herbicidal effect (criteria of Test Example 1)",Stellaria media,3 (Herbicidal ratio of 40% or higher and lower than 70%)
same,"Q: Galium spurium, herbicidal effect (criteria of Test Example 1)",Galium spurium [5],5 (Herbicidal ratio of 90% or more (almost completely withered))
same,"R: Veronica persica, herbicidal effect (criteria of Test Example 1)",Veronica persica,4 (Herbicidal ratio of 70% or higher and lower than 90%)
same,"g: rapeseed, effect on crop (criteria of Test Example 1)",rapeseed,4 (Herbicidal ratio of 70% or higher and lower than 90%)
CON=C(C)CC1CC(OC(=O)N(C)C)=C(c2c(C)cc(C)cc2OC)C1=O (centres unmarked) [6-109],"Herbicidal effect grade, B: Scirpus juncoides",Scirpus juncoides,3 (Herbicidal ratio of 40% or higher and lower than 70%)
same,"herbicidal effect on D (Leptochloa chinensis), grade 0-5",Leptochloa chinensis,4 (Herbicidal ratio of 70% or higher and lower than 90%)
same,"Herbicidal effect grade, I: Avena fatua",Avena fatua [1],0 (Herbicidal ratio of 5% or lower (almost no effect))
same,"Herbicidal effect grade, N: Amaranthus retroflexus",Amaranthus retroflexus,0 (Herbicidal ratio of 5% or lower (almost no effect))
same,"Herbicidal effect grade, Q: Galium spurium",Galium spurium [2],0 (Herbicidal ratio of 5% or lower (almost no effect))
same,"Effect on crop grade, d: soybean",soybean,0 (Herbicidal ratio of 5% or lower (almost no effect))
same,"F: Digitaria ciliaris, herbicidal effect (criteria of Test Example 1)",Digitaria ciliaris,5 (Herbicidal ratio of 90% or more (almost completely withered))
same,"H: Echinochloa crus-galli var. crus-galli, herbicidal effect (criteria of Test Example 1)",[3],5 (Herbicidal ratio of 90% or more (almost completely withered))
same,"I: Avena fatua, herbicidal effect (criteria of Test Example 1)",Avena fatua [4],5 (Herbicidal ratio of 90% or more (almost completely withered))
same,"L: Apera spica-venti, herbicidal effect (criteria of Test Example 1)",Apera spica-venti,5 (Herbicidal ratio of 90% or more (almost completely withered))
same,"M: Abutilon theophrasti, herbicidal effect (criteria of Test Example 1)",Abutilon theophrasti,4 (Herbicidal ratio of 70% or higher and lower than 90%)
same,"O: Chenopodium album, herbicidal effect (criteria of Test Example 1)",Chenopodium album,0 (Herbicidal ratio of 5% or lower (almost no effect))
same,"P: Stellaria media, herbicidal effect (criteria of Test Example 1)",Stellaria media,0 (Herbicidal ratio of 5% or lower (almost no effect))
same,"Q: Galium spurium, herbicidal effect (criteria of Test Example 1)",Galium spurium [5],0 (Herbicidal ratio of 5% or lower (almost no effect))
same,"R: Veronica persica, herbicidal effect (criteria of Test Example 1)",Veronica persica,1 (Herbicidal ratio of 5% or higher and lower than 20%)
same,"f: beet, effect on crop (criteria of Test Example 1)",beet,0 (Herbicidal ratio of 5% or lower (almost no effect))
same,"g: rapeseed, effect on crop (criteria of Test Example 1)",rapeseed,4 (Herbicidal ratio of 70% or higher and lower than 90%)
